Source: patent publication US10604512B2, “3-(1H-indol-2-yl)-1H-indazoles and therapeutic uses thereof” (Samumed, LLC, priority 2015, dated 2020)

Legend:
[1] = tested on: Wnt activity (Sp5-Luc reporter, TCF/LEF binding sites) in SW480 colon carcinoma cells; experiment: Screening assay for Wnt activity: Sp5-Luc reporter gene assay in stably transduced SW480 colon carcinoma cells; type: cell-based; settings: Homo sapiens; for EC50: overnight incubation, 10-point curve from 10 μM; for inhibition at 10 µM: given where EC50 >10 μM, read-out: percent inhibition at 10 μM
Method in brief: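 SW480 cells stably transduced with a luciferase reporter driven by an Sp5 promoter of eight TCF/LEF sites were plated at 4,000 cells/well in 1% FBS medium. They were exposed overnight at 37° C to a 10-point 1:3 dilution series from 10 μM (0.1% DMSO). Luminescence was normalized to DMSO for four-parameter EC50, or percent inhibition at 10 μM.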

[2] = tested on: Primary human fibroblasts derived from IPF patients (LL29 cells) treated with TGF-β1; experiment: Inhibition of the fibrotic process: αSMA staining in TGF-β1-treated primary human fibroblasts from IPF patients (LL29 cells); type: cell-based; settings: Fibroblast, 96 h; for EC50: % αSMA-positive LL29 cells, TGF-β1 20 ng/mL, 4 days; for inhibition at 10 µM: given where EC50 >10 μM, αSMA, LL29 cells, TGF-β1, 4 days, read-out: percent inhibition at 10 μM
Method in brief: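 LL29 IPF-patient fibroblasts in 1% FBS stimulated with TGF-β1 (20 ng/mL) and compound (10 μM–1.87 nM, 0.1% DMSO) for 4 days at 37 °C. SYTOX-positive cells excluded; % αSMA-positive cells imaged, normalized to TGF-β1/DMSO wells; EC50 by nonlinear regression, else % inhibition at 10 μM.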

SMILES	EC50 [1]	EC50 [2]	inhibition at 10 µM [2]	inhibition at 10 µM [1]
CCC(=O)Nc1cncc(-c2ccc3[nH]nc(-c4cc5c(-c6cccc(F)c6)cccc5[nH]4)c3c2)c1 [Compound 1, N-(5-(3-(4-(3-Fluorophenyl)-1H-indol-2-yl)-1H-indazol-5-yl)pyridin-3-yl) propionamide]	57 nM	5190 nM	–	–
Fc1cccc(-c2cccc3[nH]c(-c4n[nH]c5ccc(-c6cccnc6)cc45)cc23)c1 [Compound 4, 3-(4-(3-Fluorophenyl)-1H-indol-2-yl)-5-(pyridin-3-yl)-1H-indazole]	275 nM	> 10000 nM	10.4%	–
CN(C)Cc1cncc(-c2ccc3[nH]nc(-c4cc5c(-c6cccc(F)c6)cccc5[nH]4)c3c2)c1 [Compound 13, 1-(5-(3-(4-(3-Fluorophenyl)-1H-indol-2-yl)-1H-indazol-5-yl)pyridin-3-yl)-N,N-dimethylmethanamine]	> 10000 nM	302 nM	–	22.5%
CCCC(=O)Nc1cncc(-c2ccc3[nH]nc(-c4cc5c(-c6cccc(F)c6)cccc5[nH]4)c3c2)c1 [Compound 17, N-(5-(3-(4-(3-Fluorophenyl)-1H-indol-2-yl)-1H-indazol-5-yl)pyridin-3-yl) butyramide]	125 nM	> 10000 nM	0%	–
O=C(Nc1cncc(-c2ccc3[nH]nc(-c4cc5c(-c6cccc(F)c6)cccc5[nH]4)c3c2)c1)C1CC1 [Compound 20, N-(5-(3-(4-(3-Fluorophenyl)-1H-indol-2-yl)-1H-indazol-5-yl)pyridin-3-yl) cyclopropanecarboxamide]	100 nM	4550 nM	–	–
O=C(Nc1cncc(-c2ccc3[nH]nc(-c4cc5c(-c6cccc(F)c6)cccc5[nH]4)c3c2)c1)C1CCCCC1 [Compound 23, N-(5-(3-(4-(3-Fluorophenyl)-1H-indol-2-yl)-1H-indazol-5-yl)pyridin-3-yl) cyclohexanecarboxamide]	595 nM	3290 nM	–	–
Fc1cccc(-c2cccc3[nH]c(-c4n[nH]c5ccc(-c6ccccn6)cc45)cc23)c1 [Compound 28, 3-(4-(3-Fluorophenyl)-1H-indol-2-yl)-5-(pyridin-2-yl)-1H-indazole]	440 nM	6820 nM	–	–
CC(C)CC(=O)Nc1cncc(-c2ccc3[nH]nc(-c4cc5c(-c6ccc(F)cc6)cccc5[nH]4)c3c2)c1 [Compound 30, N-(5-(3-(4-(4-Fluorophenyl)-1H-indol-2-yl)-1H-indazol-5-yl)pyridin-3-yl)-3-methylbutanamide]	420 nM	2520 nM	–	–
CC(C)(C)C(=O)Nc1cncc(-c2ccc3[nH]nc(-c4cc5c(-c6ccc(F)cc6)cccc5[nH]4)c3c2)c1 [Compound 36, N-(5-(3-(4-(4-Fluorophenyl)-1H-indol-2-yl)-1H-indazol-5-yl)pyridin-3-yl) pivalamide]	655 nM	3330 nM	–	–
O=C(Nc1cncc(-c2ccc3[nH]nc(-c4cc5c(-c6ccc(F)cc6)cccc5[nH]4)c3c2)c1)c1ccccc1 [Compound 39, N-(5-(3-(4-(4-Fluorophenyl)-1H-indol-2-yl)-1H-indazol-5-yl)pyridin-3-yl) benzamide]	530 nM	1260 nM	–	–
CN(C)Cc1cncc(-c2ccc3[nH]nc(-c4cc5c(-c6ccc(F)cc6)cccc5[nH]4)c3c2)c1 [Compound 41, 1-(5-(3-(4-(4-Fluorophenyl)-1H-indol-2-yl)-1H-indazol-5-yl)pyridin-3-yl)-N,N-dimethylmethanamine]	165 nM	5760 nM	–	–
Fc1ccc(-c2cccc3[nH]c(-c4n[nH]c5ccc(-c6cncc(CN7CCCC7)c6)cc45)cc23)cc1 [Compound 42, 3-(4-(4-Fluorophenyl)-1H-indol-2-yl)-5-(5-(pyrrolidin-1-ylmethyl)pyridin-3-yl)-1H-indazole]	845 nM	2090 nM	–	–
CC(C)(C)CC(=O)Nc1cncc(-c2ccc3[nH]nc(-c4cc5c(-c6ccc(F)cc6)cccc5[nH]4)c3c2)c1 [Compound 44, N-(5-(3-(4-(4-Fluorophenyl)-1H-indol-2-yl)-1H-indazol-5-yl)pyridin-3-yl)-3,3-dimethylbutanamide]	1150 nM	4990 nM	–	–
CCCC(=O)Nc1cncc(-c2ccc3[nH]nc(-c4cc5c(-c6ccc(F)cc6)cccc5[nH]4)c3c2)c1 [Compound 45, N-(5-(3-(4-(4-Fluorophenyl)-1H-indol-2-yl)-1H-indazol-5-yl)pyridin-3-yl)butyramide]	475 nM	5520 nM	–	–
Fc1ccc(-c2cccc3[nH]c(-c4n[nH]c5ccc(-c6cncnc6)cc45)cc23)cc1 [Compound 55, 3-(4-(4-Fluorophenyl)-1H-indol-2-yl)-5-(pyrimidin-5-yl)-1H-indazole]	1780 nM	6110 nM	–	–
Nc1cncc(-c2ccc3[nH]nc(-c4cc5c(-c6ccccc6F)cccc5[nH]4)c3c2)c1 [Compound 59, 5-(3-(4-(2-Fluorophenyl)-1H-indol-2-yl)-1H-indazol-5-yl)pyridin-3-amine]	53 nM	603 nM	–	–
CCNCc1cncc(-c2ccc3[nH]nc(-c4cc5c(-c6ccccc6F)cccc5[nH]4)c3c2)c1 [Compound 62, N-((5-(3-(4-(2-Fluorophenyl)-1H-indol-2-yl)-1H-indazol-5-yl)pyridin-3-yl)methyl)ethanamine]	4180 nM	7640 nM	–	–
CC(C)(C)CC(=O)Nc1cncc(-c2ccc3[nH]nc(-c4cc5c(-c6ccccc6F)cccc5[nH]4)c3c2)c1 [Compound 72, N-(5-(3-(4-(2-Fluorophenyl)-1H-indol-2-yl)-1H-indazol-5-yl)pyridin-3-yl)-3,3-dimethylbutanamide]	4260 nM	> 10000 nM	0%	–
O=C(Nc1cncc(-c2ccc3[nH]nc(-c4cc5c(-c6ccccc6F)cccc5[nH]4)c3c2)c1)C1CCCC1 [Compound 78, N-(5-(3-(4-(2-Fluorophenyl)-1H-indol-2-yl)-1H-indazol-5-yl)pyridin-3-yl) cyclopentanecarboxamide]	1060 nM	> 10000 nM	3.7%	–
CCC(=O)Nc1cncc(-c2ccc3[nH]nc(-c4cc5c(-c6cccnc6)cccc5[nH]4)c3c2)c1 [Compound 85, N-(5-(3-(4-(Pyridin-3-yl)-1H-indol-2-yl)-1H-indazol-5-yl)pyridin-3-yl) propionamide]	65 nM	66 nM	–	–
c1cncc(-c2ccc3[nH]nc(-c4cc5c(-c6cccnc6)cccc5[nH]4)c3c2)c1 [Compound 88, 5-(Pyridin-3-yl)-3-(4-(pyridin-3-yl)-1H-indol-2-yl)-1H-indazole]	500 nM	> 10000 nM	17.3%	–
CC(C)C(=O)Nc1cncc(-c2ccc3[nH]nc(-c4cc5c(-c6cccnc6)cccc5[nH]4)c3c2)c1 [Compound 93, N-(5-(3-(4-(Pyridin-3-yl)-1H-indol-2-yl)-1H-indazol-5-yl)pyridin-3-yl) isobutyramide]	85 nM	1220 nM	–	–
c1cncc(-c2cccc3[nH]c(-c4n[nH]c5ccc(-c6cncc(CN7CCCCC7)c6)cc45)cc23)c1 [Compound 99, 5-(5-(Piperidin-1-ylmethyl)pyridin-3-yl)-3-(4-(pyridin-3-yl)-1H-indol-2-yl)-1H-indazole]	5000 nM	> 10000 nM	–	–
FC1(F)CCN(Cc2cncc(-c3ccc4[nH]nc(-c5cc6c(-c7cccnc7)cccc6[nH]5)c4c3)c2)C1 [Compound 110, 5-(5-((3,3-Difluoropyrrolidin-1-yl)methyl)pyridin-3-yl)-3-(4-(pyridin-3-yl)-1H-indol-2-yl)-1H-indazole]	> 10000 nM	9980 nM	–	30.1%
c1cncc(-c2cccc3[nH]c(-c4n[nH]c5ccc(-c6cncnc6)cc45)cc23)c1 [Compound 111, 3-(4-(Pyridin-3-yl)-1H-indol-2-yl)-5-(pyrimidin-5-yl)-1H-indazole]	990 nM	857 nM	–	–
Cc1ccncc1-c1ccc2[nH]nc(-c3cc4c(-c5ccncc5)cccc4[nH]3)c2c1 [Compound 117, 5-(4-Methylpyridin-3-yl)-3-(4-(pyridin-4-yl)-1H-indol-2-yl)-1H-indazole]	> 10000 nM	> 10000 nM	17.7%	19.6%
CCNCc1cncc(-c2ccc3[nH]nc(-c4cc5c(-c6ccncc6)cccc5[nH]4)c3c2)c1 [Compound 118, N-((5-(3-(4-(Pyridin-4-yl)-1H-indol-2-yl)-1H-indazol-5-yl)pyridin-3-yl)methyl)ethanamine]	1440 nM	888 nM	–	–
O=C(Cc1ccccc1)Nc1cncc(-c2ccc3[nH]nc(-c4cc5c(-c6ccncc6)cccc5[nH]4)c3c2)c1 [Compound 122, 2-Phenyl-N-(5-(3-(4-(pyridin-4-yl)-1H-indol-2-yl)-1H-indazol-5-yl)pyridin-3-yl)acetamide]	> 10000 nM	> 10000 nM	0%	45.5%
CN(C)Cc1cncc(-c2ccc3[nH]nc(-c4cc5c(-c6ccncc6)cccc5[nH]4)c3c2)c1 [Compound 125, N,N-dimethyl-1-(5-(3-(4-(Pyridin-4-yl)-1H-indol-2-yl)-1H-indazol-5-yl)pyridin-3-yl)methanamine]	275 nM	1240 nM	–	–
CCCC(=O)Nc1cncc(-c2ccc3[nH]nc(-c4cc5c(-c6ccncc6)cccc5[nH]4)c3c2)c1 [Compound 129, N-(5-(3-(4-(Pyridin-4-yl)-1H-indol-2-yl)-1H-indazol-5-yl)pyridin-3-yl) butyramide]	600 nM	2870 nM	–	–
